Data published in patent publication US7915316B2, “Sulfonamides” (Allergan, Inc, priority 2005, dated 2011).

Tests used:
EP2 [1] = molecular target: T1, EP2 (Homo sapiens, UniProt P43116); test: cAMP assay; type: cell-based
EP2 [2] = molecular target: T1, EP2; test: EP2 receptor binding (bhEP2 / EP2 Binding); details: for EC50 / EP2 Binding % Inh: Table 2; for IC50: Table 1; as to EP2 Binding % Inh: test concentration or dose not given here
TP = molecular target: T2, TP (Homo sapiens, UniProt P21731); test: activity at TP receptor; details: Table 2
T2 sequence (P21731 1-343): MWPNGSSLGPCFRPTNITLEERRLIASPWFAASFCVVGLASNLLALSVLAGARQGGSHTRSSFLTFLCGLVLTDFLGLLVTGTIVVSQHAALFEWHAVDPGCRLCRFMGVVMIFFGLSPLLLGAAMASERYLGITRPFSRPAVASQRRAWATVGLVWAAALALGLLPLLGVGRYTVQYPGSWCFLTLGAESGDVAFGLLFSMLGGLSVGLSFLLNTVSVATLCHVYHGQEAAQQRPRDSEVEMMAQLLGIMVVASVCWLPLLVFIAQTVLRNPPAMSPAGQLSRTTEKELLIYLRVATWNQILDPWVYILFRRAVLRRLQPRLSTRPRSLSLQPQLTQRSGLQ

IP = IP (Homo sapiens, UniProt P43119); test: activity at IP receptor; details: Table 2
EP2 [3] = molecular target: T1, EP2; test: Ca2+ signal, EP2; type: cell-based; details: for Emax: relative to PGE2
EP4 [4] = molecular target: T3, EP4 (Homo sapiens, UniProt P35408); test: EP4 receptor binding (bhEP4 / EP4 Binding); details: for EC50 / EP4 Binding % Inh: Table 2; for IC50: Table 1; as to EP4 Binding % Inh: test concentration or dose not given here
EP4 [5] = molecular target: T3, EP4; test: Ca2+ signal, EP4; type: cell-based; details: relative to PGE2
EP2 [6] = molecular target: T1, EP2; test: functional activity at hEP2 (fhEP2); type: cell-based; details: Table 1
EP2 and EP4 receptors = test: in-vitro assay for binding to and activity at various prostaglandin receptors; details: as compared to the FP, EP1, TP, IP and DP receptors

Sequence of IP (P43119 whole entry): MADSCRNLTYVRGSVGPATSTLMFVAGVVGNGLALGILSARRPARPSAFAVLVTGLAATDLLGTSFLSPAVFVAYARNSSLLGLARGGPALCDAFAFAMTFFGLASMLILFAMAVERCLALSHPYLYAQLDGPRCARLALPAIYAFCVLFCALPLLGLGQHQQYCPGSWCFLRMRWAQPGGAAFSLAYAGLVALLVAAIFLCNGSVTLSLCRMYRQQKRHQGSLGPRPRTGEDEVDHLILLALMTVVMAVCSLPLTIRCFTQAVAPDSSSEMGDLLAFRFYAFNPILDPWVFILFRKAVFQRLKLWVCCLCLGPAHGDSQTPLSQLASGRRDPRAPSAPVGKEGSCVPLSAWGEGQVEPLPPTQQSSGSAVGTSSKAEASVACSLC
T1 sequence (P43116 whole entry): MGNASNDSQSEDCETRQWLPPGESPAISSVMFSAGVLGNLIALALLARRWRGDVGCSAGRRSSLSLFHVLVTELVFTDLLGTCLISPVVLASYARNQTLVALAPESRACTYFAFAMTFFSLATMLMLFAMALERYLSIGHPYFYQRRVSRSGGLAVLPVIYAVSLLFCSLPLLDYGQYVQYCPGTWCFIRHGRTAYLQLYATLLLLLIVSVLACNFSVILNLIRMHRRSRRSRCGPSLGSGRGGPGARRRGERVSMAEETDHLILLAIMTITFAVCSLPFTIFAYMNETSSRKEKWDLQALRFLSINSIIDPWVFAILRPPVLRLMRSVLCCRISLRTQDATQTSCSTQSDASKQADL
T3 sequence (P35408 whole entry): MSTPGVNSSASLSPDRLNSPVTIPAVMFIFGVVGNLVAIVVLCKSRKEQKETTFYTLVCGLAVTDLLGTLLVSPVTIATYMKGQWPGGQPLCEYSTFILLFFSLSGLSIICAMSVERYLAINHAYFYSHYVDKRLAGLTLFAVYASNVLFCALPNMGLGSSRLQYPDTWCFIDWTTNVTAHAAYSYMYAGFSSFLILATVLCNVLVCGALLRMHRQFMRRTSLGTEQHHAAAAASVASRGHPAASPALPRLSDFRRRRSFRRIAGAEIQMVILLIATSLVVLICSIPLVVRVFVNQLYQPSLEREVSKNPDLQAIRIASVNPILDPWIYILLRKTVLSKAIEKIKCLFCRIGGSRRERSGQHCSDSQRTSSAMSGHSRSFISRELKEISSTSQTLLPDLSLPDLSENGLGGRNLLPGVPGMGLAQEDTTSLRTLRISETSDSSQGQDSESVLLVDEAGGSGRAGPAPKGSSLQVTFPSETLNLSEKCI

Row | SMILES | EC50 (EP2 [1]; Table 2, read-out: cAMP EC50) [nM] | EC50 (EP2 [2]) [nM] | EP2 Binding % Inh (EP2 [2]) [%] | TP (TP) | IP (IP) | EC50 (EP2 [3]) [nM] | Emax (EP2 [3]) [%] | EC50 (EP4 [4]) [nM] | EP4 Binding % Inh (EP4 [4]) [%] | Emax (EP4 [5]) [%] | EC50 (EP2 [1]; Table 1, read-out: cAMP) [nM] | IC50 (EP2 [2]) [nM] | IC50 (EP4 [4]) [nM] | EC50 (EP2 [6]) [nM] | selectivity at EP2 and EP4 receptors (EP2 and EP4 receptors)
1 | CS(=O)(=O)N(C/C=C\CCCC(=O)O)CCOc1cc(Cl)cc(Cl)c1 | 214 | 1900 | 81 | 7008 | 403 | 2960 | 83 | 2920 | 64 | 10 |  |  |  |  | 
2 | CCCCCC(O)c1ccc(CN(CC#CCCCC(=O)O)S(C)(=O)=O)cc1 (centres unmarked) [7-[[4-(1-hydroxyhexyl)benzyl]methanesulfonylamino]hept-5-yne-oic acid] | 24 | 5680 |  |  |  | 620 |  |  |  |  |  |  |  |  | 
3 | CS(=O)(=O)N(CC#CCCCC(=O)O)CCOc1cc(Cl)cc(Cl)c1 | 84 | 1130 | 87 |  | IP = 868 | 1250 | 90 | 4170 | 55 | 5 |  |  |  |  | 
4 | CCCCCC(O)c1ccc(CN(CCCCCCC(=O)O)S(=O)(=O)c2cccnc2)cc1 (centres unmarked) |  |  |  |  |  |  |  |  |  |  | 138 | 4730 | 546 | 275 | 
5 | CCCCCC(O)c1ccc(CN(CCCCCCC(=O)O)S(=O)(=O)c2ccccc2)cc1 (centres unmarked) [7-[[4-(1-hydroxyhexyl)benzyl]benzenesulfonylamino]heptanoic acid] |  |  |  |  |  |  |  |  |  |  |  |  | 150 | 634 | 
6 | CC(C)(C)c1ccc(CN(Cc2ccc(OCC(=O)O)cc2)S(=O)(=O)c2cccnc2)cc1 [4-[[4-(1-t-butyl)benzyl]pyridinesulfonylaminomethyl]phenoxyacetic acid] | 18 | 100 | 93 |  |  | 20 | 87 | 1340 | 59 | 0 |  |  |  |  | 
7 | CCCCCC(O)c1ccc(CN(Cc2ccc(OCC(=O)O)cc2)S(=O)(=O)c2cccnc2)cc1 (centres unmarked) | 3.5 | 208 | 97 |  |  | 11 | 92 | 1320 | 89 | 2 |  |  |  |  | 

More lines, now with the values ahead:

Row | EC50 (EP2 [1]; Table 2, read-out: cAMP EC50) [nM] | EC50 (EP2 [2]) [nM] | EP2 Binding % Inh (EP2 [2]) [%] | TP (TP) | IP (IP) | EC50 (EP2 [3]) [nM] | Emax (EP2 [3]) [%] | EC50 (EP4 [4]) [nM] | EP4 Binding % Inh (EP4 [4]) [%] | Emax (EP4 [5]) [%] | EC50 (EP2 [1]; Table 1, read-out: cAMP) [nM] | IC50 (EP2 [2]) [nM] | IC50 (EP4 [4]) [nM] | EC50 (EP2 [6]) [nM] | selectivity at EP2 and EP4 receptors (EP2 and EP4 receptors) | SMILES
8 | 156 |  | 60 |  | IP = 2561 | 2310 | 89 |  | 41 | 2 |  |  |  |  |  | CC(C)(C)c1ccc(CN(CCCCCCC(=O)O)S(C)(=O)=O)cc1 [7-[[4-(1-t-butyl)benzyl]methanesulfonylamino]heptanoic acid]
9 | 965 | 1540 | 82 |  |  | 964 | 78 | 373 | 99 | 11 |  |  |  |  |  | CC(C)(C)c1ccc(CN(CCCCCCC(=O)O)S(=O)(=O)c2ccccc2)cc1 [7-[[4-(1-t-butyl)benzyl]benzenesulfonylamino]heptanoic acid]
10 | 126 | 829 | 73 |  |  | 591 | 83 | 1380 | 71 | 1 |  |  |  |  |  | CC(C)(C)c1ccc(CN(CCCCCCC(=O)O)S(=O)(=O)c2cccnc2)cc1 [7-[[4-(1-t-butyl)benzyl]pyridinesulfonylamino]heptanoic acid]
11 |  |  |  |  |  |  |  |  |  |  | 16 | 1690 |  | 406 | selective at the EP2 and EP4 receptors | CCCCCC(O)c1ccc(CN(CCCCCCC(=O)O)S(C)(=O)=O)cc1 (centres unmarked) [Compound 12, 7-[[4-(1-Hydroxyhexyl)benzyl]methanesulfonylamino]heptanoic acid]
12 |  |  |  |  |  |  |  |  |  |  | > 10000 | 1490 | 90 | 600 |  | CCCCCC(O)c1ccc(CN(CCCCCCC(=O)O)S(=O)(=O)c2cccs2)cc1 (centres unmarked) [7-[[4-(1-hydroxyhexyl)benzyl]thiophenesulfonylamino]heptanoic acid]
13 | 1970 | 493 | 76 |  |  | 1130 | 71 | 706 | 94 | 9 |  |  |  |  |  | CC(C)(C)c1ccc(CN(CCCCCCC(=O)O)S(=O)(=O)c2cccs2)cc1 [7-[[4-(1-t-butyl)benzyl]thiophenelsulfonylamino]heptanoic acid]
